Entries after “also recorded” stand apart in the source; their conditions may differ.
Tests used:
[1] = test system: TgCRND8 mice; assay: Cerebral amyloid plaque burden (anti-Aβ immunostaining, image analysis); assay type: in vivo, mouse
Description: Cerebral amyloid burden. Brains were removed and one hemisphere was fixed in 4% paraformaldehyde and embedded in paraffin wax in the mid sagittal plane. To generate sets of systematic uniform random sections, 5 μm serial sections were collected across the entire hemisphere. Sets of sections at 50 μm intervals were used for analyses (10-14 sections/set). Plaques were identified after antigen retrieval with formic acid, and incubation with primary anti-Aβ antibody (Dako M-0872), followed by secondary antibody (Dako StreptABCcomplex/horseradish kit). End products were visualized with DAB and were counter-stained with luxol fast blue. Amyloid plaque burden was assessed with Leco IA-3001 image analysis software interfaced with Leica microscope and Hitachi KP-M1U CCD video camera. Openlab imaging software (Improvision, Lexington, Mass.) was then used to convert micrographs to binary images for plaque number and plaque area determinations. Vascular amyloid burden was defined as amyloid originating from or surrounding blood vessels and was analysed similarly.

[2] = biological target: T1, Aβ42 (Homo sapiens, UniProt P05067); assay: Plasma Aβ42 levels; assay type: in vivo, mouse; design: from tissue; host or cells: plasma of TgCRND8 transgenic mice; conditions: TgCRND8 mice following 28 days of therapy at five months of age
Description: (§1) Plasma and Cerebral Aβ Content. Hemi-brain samples were homogenized in a buffered sucrose solution, followed by either 0.4% diethylamine/100 mM NaCl for soluble Aβ levels or cold formic acid for the isolation of total Aβ. After neutralization, the samples were diluted and analyzed for Aβ40 and Aβ42 using commercially available kits (BIOSOURCE International). Each hemisphere was analyzed in triplicate and the mean values±SEM reported. Western blot analyses were performed on all fractions using urea gels for Aβ species analyses. Aβ was detected using 6E10 (BIOSOURCE International) and Enhanced Chemiluminenscence (Amersham).
(§2) Cerebral Aβ Content. Hemi-brain samples were homogenized in a buffered sucrose solution, followed by either 0.4% diethylamine/100 mM NaCl for soluble Aβ levels or cold formic acid for the isolation of total Aβ [22]. After neutralization the samples were diluted and analyzed for Aβ40 and Aβ42 using commercially available kits (BIOSOURCE International). Each hemisphere was analyzed in triplicate with the mean±SEM reported. Plasma was diluted and run directly on the ELISA.
Target sequence in this assay (P05067 672-713): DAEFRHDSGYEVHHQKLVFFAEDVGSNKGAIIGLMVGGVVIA

[3] = test system: TgCRND8 mice; assay: Gliosis quantitation (GFAP astrocytes, CD68 microglia); assay type: in vivo, mouse
Description: Gliosis Quantitation. Five randomly selected, evenly spaced, sagittal sections were collected from paraformaldehyde-fixed and frozen hemispheres of treated and control mice. Sections were immunolabelled for astrocytes with anti-rat GFAP IgG2a (Dako; diluted 1:50) and for microglia with anti-rat CD68 IgG2b (Dako; 1:50). Digital images were captured using a Coolsnap digital camera (Photometrics, Tuscon, Ariz.) mounted to a Zeiss, Axioscope 2 Plus microscope. Images were analysed using Openlab 3.08 imaging software (Improvision, Lexington Mass.).

[4] = biological target: T2, Aβ40 (Homo sapiens, UniProt P05067); assay: Cerebral Aβ content: brain Aβ40 (ELISA kit); assay type: in vivo, mouse; conditions: TgCRND8 mice with pre-existing disease; 28 day treatment from 5 months of age
T2 construct: from tissue; host or cells: hemi-brain homogenate of TgCRND8 transgenic mice
T2 sequence (P05067 672-711): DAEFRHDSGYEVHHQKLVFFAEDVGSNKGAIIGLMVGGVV
Description: as §1, §2

[5] = test system: neurons; conditions: cited from earlier work
[6] = biological target: T1, Aβ42; assay: Cerebral Aβ content: brain Aβ42 (ELISA kit); assay type: in vivo, mouse; design: from tissue; host or cells: hemi-brain homogenate of TgCRND8 transgenic mice; conditions: TgCRND8 mice with pre-existing disease; 28 day treatment from 5 months of age
Description: as §1, §2
Target sequence in this assay (P05067 672-713 limits assumed): as the sequence (P05067 672-713) above

[7] = test system: TgCRND8 mice; assay: Morris Water Maze spatial reference memory test; assay type: in vivo, mouse; conditions: for spatial memory / cognition compared to untreated TgCRND8 mice / spatial memory compared to non-Tg littermates: one month treatment from 5 months of age; for effect on non-Tg littermate performance: one month treatment
Description: (§3) Behavioural tests: Morris Water Maze testing was performed as previously described. After non-spatial pre-training, mice underwent place discrimination training for 5 days with 4-trials per day, followed by a cued visible platform to rule out general motivational, learning deficits and motor problems, and a probe trial to evaluate memory. […] Open field test for motor activity was preformed as described previously. Duration of walking, pausing and grooming were analyzed as indices of spontaneous locomotor activity. Sensorimotor function was examined with an Economex™ accelerating rotarod (Columbus Instruments, Columbus, Ohio), as described elsewhere. The rod was set to accelerate at a rate of 0.2 r.p.m./s, from an initial, constant speed of 5 r.p.m. Latency to fall was recorded in four daily trials, conducted at 30 min intervals. All mice were trained for seven days before testing. The test day performance score for each animal was obtained by summing its latency to fall over the four trials
Behavioural tests: Behavioural analyses were performed using the Morris Water Maze test (13, 14). After pre-spatial training, mice underwent place discrimination training for 5 days with 4 trials per day, followed by a cued visible platform to rule out general motivational, learning deficits and motor problems. […] Open field test for motor activity was performed as described previously. Duration of walking, pausing, rearing and grooming were analyzed as indices of spontaneous locomotor activity.

[8] = test system: TgCRND8 mice; assay: Survival census (Kaplan-Meier); assay type: in vivo, mouse; conditions: for Kaplan Meier cumulative survival: compared to untreated TgCRND8 mice
Description: (§4) Survival Census: The probability of survival was assessed by the Kaplan-Meier technique, computing the probability of survival at every occurrence of death, thus making it suitable for small sample sizes. For the analyses of survival, 35 mice were used for each treatment group. The Tarone-Ware test was used to assess effects of treatments.
as §4, with “technique” for “technique,”, “30” for “35”

[9] = Pilot in vivo studies; conditions: data not shown
[10] = 6-18 grams/day/adult or 86-257 mg/Kg/day; reference [21]; cited from earlier work
[11] = test system: Aβ; conditions: reference [11]; cited from earlier work
[12] = test system: TgCRND8 mice; assay: Open field test for motor activity; assay type: in vivo, mouse; conditions: TgCRND8 mice and non-Tg littermates; drinking water 10 mg/ml, extended treatment
Description: as §3
(§5) Behavioural tests: Behavioural analyses were performed using the Morris Water Maze test (13, 14). […] Duration of walking, pausing, rearing and grooming were analyzed as indices of spontaneous locomotor activity.

[13] = test system: TgCRND8 mice; assay: Cued visible platform test (Morris Water Maze); assay type: in vivo, mouse; conditions: one month treatment from 5 months of age
Description: as §3, §5

[14] = mouse, in vivo
Description: Mice. […] This initial dosage was chosen based upon the dosage of myo-cyclohexanehexol (6-18 grams/day/adult or 86-257 mg/Kg/day) that is typically administered to human patients for various psychiatric disorders. […] A cohort of animals (n=10 mice per treatment arm) entered the study at five months of age, and outcomes were then analyzed after one month of treatment. The body weight, coat characteristics and in cage behaviour were monitored. Mannitol was used as a negative control for potential alterations in caloric intake. All experiments were performed according to the Canadian Council on Animal Care guidelines.
Mice. […] Cohorts of animals entered the study at 5 months of age and outcomes were analyzed after one month. Alternatively, cohorts of animals entered the prophylactic study at 6 weeks of age and outcome measures were analysed at 6-months of age. The body weight, coat characteristics and in cage behaviour was monitored. All experiments were performed according to the Canadian Council on Animal Care guidelines.

[15] = Hematology and serum biochemical analyses; assay type: in vivo, mouse
Excerpt: Blood was collected prior to sacrifice and samples were sent to VITA-TECH laboratories (Markham, ON, Canada) for analyses. Reference values were obtained from Zhou and Hansson.

[16] = test system: TgCRND8 mice; assay: Synaptophysin quantification by western blotting (hippocampus); assay type: in vivo, mouse
Description: Synaptophysin protein levels were determined in treated and control mice by western blotting. Sections were immunoblotted for synaptophysin with anti-synaptophysin IgG (1:40; Roche, Laval, PQ) or GAPDH IgG (1: 10,000; Biodesign International) as a loading control. Films were scanned before analyses using NIH Image analyses combined with densitometry. Synaptophysin values were normalized to the loading control for each sample. Statistical analyses were determined using factorial ANOVA with Fishers PLSD as a post-hoc test.

[17] = TgCRND8 mice, 4-month Prophylactic (oral from 6 weeks to 4 months of age)
[18] = TgCRND8 mice, 6-month Prophylactic (oral from 6 weeks to 6 months of age)
[19] = TgCRND8 mice, oral treatment for 28 days (1 month) from 5 months of age, analysed at 6 months
[20] = six month old TgCRND8 mice, 28 days of oral treatment beginning at five months of age
[21] = drinking water 10 mg/ml, listed as Epi-2-inosose
[22] = drinking water 10 mg/ml, prophylactic from 6 weeks until six months of age

Compound: 1,2,3,4,5/6-(epi-)cyclohexanehexol [epi-cyclohexanehexol]
- amyloid (plaque) burden, immunostaining ([1]; TgCRND8 mice at six months of age, hippocampus and cerebral cortex): modest effect on amyloid burden
- plaque burden (percent area of the brain covered with plaques, plaque number) ([1]; TgCRND8 mice with pre-existing disease, one month treatment from 5 months of age): no significant impact
- Mean Plaque Size [1, 17]: 95 ± 43 μm^2
- Total Plaque Area [1, 17]: 65042 ± 5199 μm^2
- Mean Plaque Size [1, 18]: 370 ± 9 μm^2
- Total Plaque Area [1, 18]: 380456 ± 13498 μm^2
- Mean Plaque Size [1, 19]: 346 ± 6 μm^2
- Total Plaque Area [1, 19]: 459706 ± 49966 μm^2
- Total Plaque Count ([1]; TgCRND8 mice, oral treatment for 28 days from 5 months of age, analysed at 6 months): 1342 ± 114
- Plasma Aβ42 levels [2]: 1079 ± 79 pg/mL
- percent brain area covered with microgliosis ([3]; TgCRND8 mice): decreased the percent brain area covered with microgliosis
- astrogliosis / gliosis, anti-GFAP immunostaining ([3]; TgCRND8 mice at six months of age): decrease in astrogliosis
- percent brain area covered in astrogliosis ([3]; TgCRND8 mice, 4- and 6-months of age): decreased the percent brain area covered in astrogliosis at both 4- and 6-months of age
- effect on brain Aβ40 levels [4]: no significant impact
- activity against synthetic Aβ42 neurotoxicity [5]: protects neurons from synthetic Aβ42 cytotoxicity
- effect on brain Aβ42 levels [6]: no significant impact
- Non-Tg littermate behaviour under treatment ([7]; non-Tg littermates, Morris Water Maze): not affected
- cognition compared to non-Tg mice ([7]; prophylactic treatment, four months of age): significantly different from treated and untreated non-Tg mice
- cognition compared to non-Tg littermates ([7]; prophylactic treatment, six months of age): approached that of non-Tg littermates
- spatial reference memory performance compared to non-Tg littermates [7, 20]: significantly poorer than the performance of their non-Tg littermates; also recorded: remained impaired with respect to non-Tg littermates
- spatial reference memory performance compared to untreated TgCRND8 littermates [7, 20]: not significantly different from that of untreated TgCRND8 littermates
- Kaplan Meier cumulative survival [8]: did not significantly improve survival

Compound: OC1C(O)C(O)C(O)C(O)C1O (stereo not drawn) [chiro-inositol, chiro-cyclohexanehexol, reference compound]
- activity against synthetic Aβ42 neurotoxicity [5]: inactive

Compound: O[C@H]1[C@H](O)[C@@H](O)[C@H](O)[C@@H](O)[C@H]1O [myo-cyclohexanehexol, 1,2,3,5/4,6-(myo-)cyclohexanehexol]
- benefit in pilot in vivo studies [9]: no significant benefit
- toxicity [10]: no toxicity in humans or animals
- effectiveness in prior in vitro studies [11]: only weakly effective

Compound: epi-2-inosose
- open field test: rearing, grooming, walking, pausing (activity levels) [12]: indistinguishable; also recorded: does not affect activity levels
- Visual acuity (cued version of the Morris Water Maze test) [13]: not altered by treatment
- spatial memory / cognition compared to untreated TgCRND8 mice ([7]; drinking water 10 mg/ml): significantly better than untreated TgCRND8 littermates
- spatial memory compared to non-Tg littermates ([7]; drinking water 10 mg/ml): not significantly different from non-Tg littermates
- spatial memory / cognition compared to untreated TgCRND8 mice [7, 21]: significantly improved cognition
- spatial memory compared to non-Tg littermates [7, 21]: not significantly different from treated nTg littermates
- spatial learning compared to non-Tg littermates [7, 22]: approached that of non-Tg littermates
- spatial learning compared to untreated TgCRND8 littermates [7, 22]: better cognitive function compared to their untreated TgCRND8 littermates
- spatial learning compared to non-Tg littermates ([7]; drinking water 10 mg/ml, prophylactic from 6 weeks until six months of age, listed as Epi-2-inosose): different from non-Tg littermates on all days of testing
- effect on non-Tg littermate performance ([7]; non-Tg littermates, drinking water 10 mg/ml): no effect on non-Tg littermate performance
- effect on non-Tg littermate performance ([7]; non-Tg littermates, drinking water 10 mg/ml, listed as Epi-2-inosose): no effect on non-Tg littermate behaviour
- effect on cognitive performance of non-Tg mice ([7]; non-Tg mice, prophylactic administration): no effect on the cognitive performance of non-Tg mice
- Kaplan Meier cumulative survival ([8]; drinking water 10 mg/ml): increased survival
- improvement of survival ([8]; prophylactic treatment to six months of age, vs untreated): 50%
- survival, weight, fur condition, cage behaviour [14]: no effect on survival, weight, fur condition, or cage behaviour of wild type mice
- serum biochemistry: organ function ([15]; Tg and non-Tg mice treated): normal kidney, heart, liver and pancreas function
- ALP ([15]; serum, Treated TgCRND8): 73 ± 5 U/L
- ALT ([15]; serum, Treated TgCRND8): 30 ± 3 U/L
- Albumin ([15]; serum, Treated TgCRND8): 32 ± 2 g/L
- Bilirubin ([15]; serum, Treated TgCRND8): 1.8 ± 0.15 µmol/L
- Creatine ([15]; serum, Treated TgCRND8): 15.9 ± 2 µmol/L
- Globulin ([15]; serum, Treated TgCRND8): 18 ± 2 g/L
- Glucose ([15]; serum, Treated TgCRND8): 12 ± 0.6 mmol/L
- Total Protein ([15]; serum, Treated TgCRND8): 49 ± 0.7 g/L
- Urea ([15]; serum, Treated TgCRND8): 8.6 ± 0.4 mmol/L
- Synaptophysin reactivity / levels ([16]; 6 month prophylactic and treatment paradigms): significantly increased
- increase in synaptophysin reactivity in the hippocampus ([16]; delayed treatment study): 15%
- increase in synaptophysin reactivity in the hippocampus ([16]; prophylactic study): 33%

From US20070197453A1, “Compositions and methods for treatment of disorders of protein aggregation” (priority 2006, published 2007)
